Laboratory results reported in ChEMBL document CHEMBL4428134, “Discovery of AZD2716: A Novel Secreted Phospholipase A2 (sPLA2) Inhibitor for the Treatment of Coronary Artery Disease” (ACS Med Chem Lett, 2016).
Values after ≈ are worked out from the molar mass of the structure shown. Active and inactive are the calls of the source. The rule behind the calls is not given here.

Assays:
[1] = molecular target: T1, Group 10 secretory phospholipase A2 (Homo sapiens, UniProt O15496); assay: Inhibition of recombinant sPLA2-10 (unknown origin) using 1-palmitoyl-2-oleoyl-sn-glycero-3-phosphocholine as substrate preincubated for 10 mins followed by substrate addition measured after 60 mins by colorimetric method
T1 sequence (O15496 whole entry): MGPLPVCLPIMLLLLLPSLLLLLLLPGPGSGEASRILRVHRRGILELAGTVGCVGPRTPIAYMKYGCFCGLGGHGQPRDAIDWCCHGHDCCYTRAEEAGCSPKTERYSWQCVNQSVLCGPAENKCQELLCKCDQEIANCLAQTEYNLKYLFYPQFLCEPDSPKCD

[2] = molecular target: T2, Phospholipase A2, membrane associated (Homo sapiens, UniProt P14555); assay: (§1) Inhibition of recombinant sPLA2-2A (unknown origin) using 1-palmitoyl-2-oleoyl-sn-glycero-3-phosphocholine as substrate preincubated for 10 mins followed by substrate addition measured after 60 mins by colorimetric method
T2 sequence (P14555 whole entry): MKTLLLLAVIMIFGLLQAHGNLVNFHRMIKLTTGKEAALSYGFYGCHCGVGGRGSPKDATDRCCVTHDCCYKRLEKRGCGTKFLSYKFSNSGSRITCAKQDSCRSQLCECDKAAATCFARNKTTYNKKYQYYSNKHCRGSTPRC

[3] = Inhibition of recombinant sPLA2-5 (unknown origin) using 1-palmitoyl-2-oleoyl-sn-glycero-3-phosphocholine as substrate preincubated for 10 mins followed by substrate addition measured after 60 mins by colorimetric method; design: species or system Homo sapiens
[4] = Intrinsic clearance in human hepatocytes at 1 uM assessed per million cells measured up to 60 mins; type: ADME, cell-based, Hepatocyte; conditions: 1 h
[5] = molecular target: T3, Secretory phospholipase A2 (Homo sapiens) (UniProt Q5R387+Q9NZK7+P14555+Q9BZM2+Q9UNK4+P39877+O15496+P04054+Q9NZ20+Q9BZM1+Q9BX93); assay: Inhibition of sPLA2 in human plasma at 25 uM using 1-Hexadecanoyl-2-(1-pyrenedecanoyl)-sn-glycero-3-phosphomethanol as substrate preincubated for 10 mins followed by substrate addition measured after 90 mins by fluorescence assay; type: cell-free
[6] = molecular target: T3, Secretory phospholipase A2 (Homo sapiens); assay: Inhibition of sPLA2 in human plasma using 1-Hexadecanoyl-2-(1-pyrenedecanoyl)-sn-glycero-3-phosphomethanol as substrate preincubated for 10 mins followed by substrate addition measured after 90 mins by fluorescence assay; type: cell-free
[7] = molecular target: Solute carrier organic anion transporter family member 1B1 (Homo sapiens, UniProt Q9Y6L6); assay: Inhibition of human OATP1B1 expressed in HEK293 cells assessed as reduction in […] uptake at 25 uM; type: cell-based; conditions: hek293, 25 µM
Chain of Solute carrier organic anion transporter family member 1B1 (Q9Y6L6 whole entry): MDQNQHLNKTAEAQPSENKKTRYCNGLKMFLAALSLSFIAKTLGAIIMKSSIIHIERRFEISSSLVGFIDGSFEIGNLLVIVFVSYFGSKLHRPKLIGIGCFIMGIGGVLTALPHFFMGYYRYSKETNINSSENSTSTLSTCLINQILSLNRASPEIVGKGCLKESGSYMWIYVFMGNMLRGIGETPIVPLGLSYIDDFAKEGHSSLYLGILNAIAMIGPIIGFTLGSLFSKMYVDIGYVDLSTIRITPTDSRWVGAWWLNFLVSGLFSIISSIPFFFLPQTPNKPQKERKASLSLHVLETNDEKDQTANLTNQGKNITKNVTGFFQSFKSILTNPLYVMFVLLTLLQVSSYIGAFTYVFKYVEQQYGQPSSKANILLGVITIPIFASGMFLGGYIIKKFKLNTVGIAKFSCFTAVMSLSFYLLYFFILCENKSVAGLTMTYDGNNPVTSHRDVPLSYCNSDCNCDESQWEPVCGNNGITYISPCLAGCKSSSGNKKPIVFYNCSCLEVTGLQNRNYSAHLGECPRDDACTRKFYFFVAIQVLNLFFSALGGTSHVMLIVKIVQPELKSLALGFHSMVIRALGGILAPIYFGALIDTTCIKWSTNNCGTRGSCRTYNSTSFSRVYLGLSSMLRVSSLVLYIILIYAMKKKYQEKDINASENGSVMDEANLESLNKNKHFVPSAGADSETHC

[8] = molecular target: Phospholipase A2, membrane associated (Homo sapiens) (UniProt P14555); assay: as §1
[9] = Unbound fraction in human plasma; type: ADME, cell-free
Homo sapiens = species: Homo sapiens; assay: Inhibition of recombinant sPLA2-5 (unknown origin) at 25 uM using 1-palmitoyl-2-oleoyl-sn-glycero-3-phosphocholine as substrate preincubated for 10 mins followed by substrate addition measured after 60 mins by colorimetric method
[10] = Apparent permeability from apical to basolateral side in human Caco2 cells at pH 6.5; type: ADME, cell-based; conditions: caco-2, pH 6.5
[11] = Solubility of compound in pH 7.4 DMSO/HBSS after 24 hrs by LC-UV/MS analysis; type: physicochemical
Cytochrome P450 1A2 = Cytochrome P450 1A2 (Homo sapiens, UniProt P05177); assay: Inhibition of human recombinant CYP1A2; type: ADME
[12] = molecular target: Voltage-dependent T-type calcium channel subunit alpha-1H (Homo sapiens, UniProt O95180); assay: Inhibition of human Cav3.2 expressed in CHO cells by patch clamp assay; type: cell-based
Cytochrome P450 2C19 = Cytochrome P450 2C19 (Homo sapiens, UniProt P33261); assay: Inhibition of human recombinant CYP2C19; type: ADME
Chain of Cytochrome P450 2C19 (P33261 whole entry): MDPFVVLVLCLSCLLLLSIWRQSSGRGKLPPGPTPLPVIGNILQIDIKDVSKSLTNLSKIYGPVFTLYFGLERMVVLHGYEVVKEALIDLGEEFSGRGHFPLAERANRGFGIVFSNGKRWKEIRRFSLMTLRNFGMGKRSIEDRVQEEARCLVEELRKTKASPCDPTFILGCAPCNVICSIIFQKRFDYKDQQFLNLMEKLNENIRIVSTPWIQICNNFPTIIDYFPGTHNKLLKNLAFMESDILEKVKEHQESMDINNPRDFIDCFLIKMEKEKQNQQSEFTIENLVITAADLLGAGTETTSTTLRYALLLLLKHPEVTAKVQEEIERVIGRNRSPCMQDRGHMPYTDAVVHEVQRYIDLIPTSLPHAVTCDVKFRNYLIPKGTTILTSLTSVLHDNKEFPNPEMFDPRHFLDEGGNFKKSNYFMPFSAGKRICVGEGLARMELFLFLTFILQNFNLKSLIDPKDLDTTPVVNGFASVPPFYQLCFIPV

[13] = Oral bioavailability in beagle dog at 2 umol/kg; type: ADME, organism-based, Canis lupus familiaris; conditions: in vivo
[14] = Inhibition of human IKs channel expressed in CHO cells by patch clamp assay; type: cell-based
[15] = Oral bioavailability in Sprague-Dawley rat at 4 umol/kg; type: ADME, organism-based; conditions: in vivo
[16] = Volume of distribution at steady state in beagle dog at 1 umol/kg, iv or 2 umol/kg, po; type: ADME, organism-based, Canis lupus familiaris; conditions: in vivo
[17] = molecular target: Voltage-gated inwardly rectifying potassium channel KCNH2 (Homo sapiens, UniProt Q12809); assay: Inhibition of human ERG expressed in CHO cells by patch clamp assay; type: cell-based
Chain of Voltage-gated inwardly rectifying potassium channel KCNH2 (Q12809 whole entry): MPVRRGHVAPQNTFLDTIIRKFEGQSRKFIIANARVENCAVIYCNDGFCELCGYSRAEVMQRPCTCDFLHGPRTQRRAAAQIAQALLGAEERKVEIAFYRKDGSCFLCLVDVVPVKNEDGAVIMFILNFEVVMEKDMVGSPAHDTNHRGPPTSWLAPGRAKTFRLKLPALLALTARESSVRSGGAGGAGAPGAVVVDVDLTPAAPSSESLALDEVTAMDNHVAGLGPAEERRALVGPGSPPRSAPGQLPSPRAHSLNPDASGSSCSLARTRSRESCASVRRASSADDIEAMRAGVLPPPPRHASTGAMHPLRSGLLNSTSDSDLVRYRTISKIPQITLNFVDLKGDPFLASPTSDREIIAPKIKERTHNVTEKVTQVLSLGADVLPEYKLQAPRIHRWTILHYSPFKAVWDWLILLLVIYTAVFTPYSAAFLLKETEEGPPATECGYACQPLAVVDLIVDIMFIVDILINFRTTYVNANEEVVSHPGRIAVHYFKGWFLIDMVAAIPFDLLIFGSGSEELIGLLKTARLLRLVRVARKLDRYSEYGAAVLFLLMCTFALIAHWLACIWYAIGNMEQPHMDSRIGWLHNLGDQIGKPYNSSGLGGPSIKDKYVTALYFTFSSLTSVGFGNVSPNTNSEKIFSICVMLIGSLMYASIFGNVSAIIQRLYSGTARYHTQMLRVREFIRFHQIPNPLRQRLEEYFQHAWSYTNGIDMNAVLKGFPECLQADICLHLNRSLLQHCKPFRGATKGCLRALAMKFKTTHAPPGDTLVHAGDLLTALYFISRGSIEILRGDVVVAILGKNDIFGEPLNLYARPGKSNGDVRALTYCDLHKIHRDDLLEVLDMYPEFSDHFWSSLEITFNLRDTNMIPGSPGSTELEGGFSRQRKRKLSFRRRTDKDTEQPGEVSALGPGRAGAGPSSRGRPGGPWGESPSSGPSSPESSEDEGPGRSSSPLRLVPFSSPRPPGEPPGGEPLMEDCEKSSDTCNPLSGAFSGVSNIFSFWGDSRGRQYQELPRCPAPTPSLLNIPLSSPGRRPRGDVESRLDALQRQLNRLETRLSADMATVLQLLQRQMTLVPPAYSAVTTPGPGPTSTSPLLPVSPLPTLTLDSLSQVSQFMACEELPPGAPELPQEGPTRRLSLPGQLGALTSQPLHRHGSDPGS

Cytochrome P450 2C9 = Cytochrome P450 2C9 (Homo sapiens, UniProt P11712); assay: Inhibition of human recombinant CYP2C9; type: ADME
Chain of Cytochrome P450 2C9 (P11712 whole entry): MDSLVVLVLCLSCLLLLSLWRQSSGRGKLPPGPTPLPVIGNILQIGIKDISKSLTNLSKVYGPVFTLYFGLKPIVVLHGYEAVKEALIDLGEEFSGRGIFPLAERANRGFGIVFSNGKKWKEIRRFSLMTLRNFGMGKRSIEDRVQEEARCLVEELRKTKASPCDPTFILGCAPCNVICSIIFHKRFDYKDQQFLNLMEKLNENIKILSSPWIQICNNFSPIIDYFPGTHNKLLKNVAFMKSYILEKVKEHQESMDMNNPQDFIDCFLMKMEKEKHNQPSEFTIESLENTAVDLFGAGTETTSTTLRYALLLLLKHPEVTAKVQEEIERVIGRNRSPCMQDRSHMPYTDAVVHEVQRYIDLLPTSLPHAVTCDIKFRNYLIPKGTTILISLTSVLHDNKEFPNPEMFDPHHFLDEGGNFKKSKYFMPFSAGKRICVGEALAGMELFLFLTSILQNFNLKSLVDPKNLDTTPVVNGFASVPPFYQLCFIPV

Cytochrome P450 3A4 = Cytochrome P450 3A4 (Homo sapiens, UniProt P08684); assay: Inhibition of human recombinant CYP3A4; type: ADME
Cytochrome P450 2D6 = Cytochrome P450 2D6 (Homo sapiens, UniProt P10635); assay: Inhibition of human recombinant CYP2D6; type: ADME
Cytochrome P450 2C8 = Cytochrome P450 2C8 (Homo sapiens, UniProt P10632); assay: Inhibition of human recombinant CYP2C8; type: ADME
[18] = molecular target: Sodium channel protein type 5 subunit alpha (Homo sapiens, UniProt Q14524); assay: Inhibition of human Nav1.5 expressed in CHO cells by patch clamp assay; type: cell-based
[19] = molecular target: Voltage-dependent L-type calcium channel subunit alpha-1C (Homo sapiens, UniProt Q13936); assay: Inhibition of human Cav1.2 expressed in CHO cells by patch clamp assay; type: cell-based
Chain of Voltage-dependent L-type calcium channel subunit alpha-1C (Q13936 whole entry): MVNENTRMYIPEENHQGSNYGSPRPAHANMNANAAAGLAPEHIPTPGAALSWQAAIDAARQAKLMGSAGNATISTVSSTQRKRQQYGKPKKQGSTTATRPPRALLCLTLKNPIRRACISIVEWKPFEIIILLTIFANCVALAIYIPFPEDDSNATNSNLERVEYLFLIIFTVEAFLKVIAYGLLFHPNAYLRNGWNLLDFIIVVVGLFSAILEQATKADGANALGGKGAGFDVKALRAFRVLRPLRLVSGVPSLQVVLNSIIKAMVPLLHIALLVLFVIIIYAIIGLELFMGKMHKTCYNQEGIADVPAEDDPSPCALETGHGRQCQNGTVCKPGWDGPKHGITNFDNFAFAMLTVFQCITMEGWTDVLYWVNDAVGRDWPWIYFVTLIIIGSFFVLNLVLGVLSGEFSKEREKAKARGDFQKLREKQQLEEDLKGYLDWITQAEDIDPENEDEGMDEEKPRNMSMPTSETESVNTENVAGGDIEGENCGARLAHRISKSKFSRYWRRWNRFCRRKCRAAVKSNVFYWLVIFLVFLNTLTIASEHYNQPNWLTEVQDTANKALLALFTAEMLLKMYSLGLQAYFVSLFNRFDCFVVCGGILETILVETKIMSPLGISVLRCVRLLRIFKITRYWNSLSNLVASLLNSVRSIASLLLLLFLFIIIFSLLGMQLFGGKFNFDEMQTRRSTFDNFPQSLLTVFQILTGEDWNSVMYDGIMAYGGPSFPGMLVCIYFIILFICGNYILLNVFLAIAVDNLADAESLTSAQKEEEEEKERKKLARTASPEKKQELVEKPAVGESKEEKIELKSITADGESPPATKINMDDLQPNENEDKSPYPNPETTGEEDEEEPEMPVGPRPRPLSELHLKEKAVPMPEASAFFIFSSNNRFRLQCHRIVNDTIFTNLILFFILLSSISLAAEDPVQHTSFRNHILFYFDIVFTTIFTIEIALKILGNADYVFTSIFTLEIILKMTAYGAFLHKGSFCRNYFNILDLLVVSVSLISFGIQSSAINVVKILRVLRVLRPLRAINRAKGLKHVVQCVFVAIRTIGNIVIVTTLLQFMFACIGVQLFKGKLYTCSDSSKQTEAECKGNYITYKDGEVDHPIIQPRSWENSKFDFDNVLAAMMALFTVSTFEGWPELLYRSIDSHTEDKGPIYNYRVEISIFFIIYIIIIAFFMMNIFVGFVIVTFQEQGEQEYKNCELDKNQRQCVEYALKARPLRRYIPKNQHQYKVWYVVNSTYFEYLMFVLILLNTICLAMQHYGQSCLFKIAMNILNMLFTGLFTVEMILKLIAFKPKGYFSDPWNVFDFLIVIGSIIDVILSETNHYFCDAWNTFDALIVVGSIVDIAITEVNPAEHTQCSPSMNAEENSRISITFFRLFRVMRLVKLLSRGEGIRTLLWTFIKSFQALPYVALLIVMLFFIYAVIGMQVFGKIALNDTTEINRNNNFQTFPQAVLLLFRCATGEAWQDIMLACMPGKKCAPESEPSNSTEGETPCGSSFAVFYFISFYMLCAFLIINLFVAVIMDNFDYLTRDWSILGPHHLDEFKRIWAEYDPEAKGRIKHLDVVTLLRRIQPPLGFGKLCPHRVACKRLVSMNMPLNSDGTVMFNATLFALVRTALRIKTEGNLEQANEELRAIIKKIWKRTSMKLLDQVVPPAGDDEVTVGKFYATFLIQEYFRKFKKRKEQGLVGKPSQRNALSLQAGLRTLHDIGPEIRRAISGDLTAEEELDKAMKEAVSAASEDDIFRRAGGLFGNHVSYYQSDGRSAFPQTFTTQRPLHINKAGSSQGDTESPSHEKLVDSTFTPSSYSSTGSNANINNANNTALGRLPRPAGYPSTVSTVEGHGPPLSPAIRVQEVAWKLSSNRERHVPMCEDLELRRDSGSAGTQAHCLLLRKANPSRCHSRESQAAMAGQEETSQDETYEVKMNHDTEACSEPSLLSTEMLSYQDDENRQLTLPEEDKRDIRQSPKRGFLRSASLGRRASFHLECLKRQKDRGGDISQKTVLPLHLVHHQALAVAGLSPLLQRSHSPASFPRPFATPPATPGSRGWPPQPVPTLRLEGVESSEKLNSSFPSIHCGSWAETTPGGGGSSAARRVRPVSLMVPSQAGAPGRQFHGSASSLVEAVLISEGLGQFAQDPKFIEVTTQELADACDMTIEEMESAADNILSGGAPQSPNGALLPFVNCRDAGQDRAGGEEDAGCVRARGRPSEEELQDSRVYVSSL

[20] = Volume of distribution at steady state in Sprague-Dawley rat at 2 umol/kg, iv or 4 umol/kg, po; type: ADME, organism-based; conditions: in vivo
[21] = molecular target: A-type voltage-gated potassium channel KCND3 (Homo sapiens, UniProt Q9UK17); assay: Inhibition of human Kv4.3 expressed in CHO cells by patch clamp assay; type: cell-based
[22] = AUC (0 to infinity) in mouse at 50 umol/kg, po; type: ADME; design: dose 50 umol/kg, route oral, time infinity; conditions: in vivo
[23] = Oral bioavailability in beagle dog at 3 umol/kg; type: ADME, organism-based, Canis lupus familiaris; conditions: in vivo
[24] = Oral bioavailability in cynomolgus monkey at 15.8 umol/kg; type: ADME, organism-based, Macaca fascicularis; conditions: in vivo
[25] = Oral bioavailability in Sprague-Dawley rat at 8 umol/kg; type: ADME, organism-based; conditions: in vivo
Cynomolgus monkey = assay: In vivo inhibition of sPLA2 in po dosed cynomolgus monkey plasma measured up to 24 hrs; type: functional, Macaca fascicularis
[26] = Volume of distribution at steady state in beagle dog at 1 umol/kg, iv or 3 umol/kg, po; type: ADME, organism-based, Canis lupus familiaris; conditions: in vivo
Macaca fascicularis = species: Macaca fascicularis; assay: Inhibition of sPLA2 in cynomolgus monkey plasma using 1-Hexadecanoyl-2-(1-pyrenedecanoyl)-sn-glycero-3-phosphomethanol as substrate preincubated for 10 mins followed by substrate addition measured after 90 mins by fluorescence assay; type: cell-free
[27] = Volume of distribution at steady state in Sprague-Dawley rat at 2 umol/kg, iv or 8 umol/kg, po; type: ADME, organism-based; conditions: in vivo
[28] = AUC (0 to infinity) in Sprague-Dawley rat at 8 umol/kg, po; type: ADME; design: dose 8 umol/kg, time infinity, route oral; conditions: in vivo
[29] = AUC (0 to infinity) in beagle dog at 3 umol/kg, po; type: ADME, Canis lupus familiaris; design: dose 3 umol/kg, route oral, time infinity; conditions: in vivo
[30] = Volume of distribution at steady state in mouse at 10 umol/kg, iv or 50 umol/kg, po; type: ADME, organism-based; conditions: in vivo
[31] = molecular target: Secretory phospholipase A2; assay: Inhibition of sPLA2 in atherosclerotic plaque from coronary artery disease patient; type: protein assay, Homo sapiens
[32] = AUC (0 to infinity) in cynomolgus monkey at 15.8 umol/kg, po; type: ADME, Macaca fascicularis; design: dose 15.8 umol/kg, route oral, time infinity; conditions: in vivo
[33] = Volume of distribution at steady state in cynomolgus monkey at 5 umol/kg, iv or 15.8 umol/kg, po; type: ADME, organism-based, Macaca fascicularis; conditions: in vivo
[34] = Oral bioavailability in mouse at 50 umol/kg; type: ADME, organism-based; conditions: in vivo
[35] = molecular target: Secretory phospholipase A2; assay: Inhibition of sPLA2 in human HepG2 cells; type: cell-based
HepG2 = assay: Inhibition of sPLA2-2A production in human HepG2 cells; type: functional, cell-based

## C[C@@H](Cc1cccc(-c2cc(Cc3ccccc3)ccc2C(N)=O)c1)C(=O)O
[1]
  IC50: 3800 nM
[2]
  IC50: 38 nM
[3]
  IC50: 1200 nM
[4]
  CLint: 9.3 µL/min/1e6 cells

## NC(=O)c1ccc(Cc2ccccc2)cc1-c1cccc(C(=O)O)c1
[2]
  IC50: 910 nM
[3]
  IC50: > 10000 nM
[5]
  inhibition: inactive

## CCC(Cc1cccc(-c2cc(Cc3ccccc3)ccc2C(N)=O)c1)C(=O)O (centres undefined)
[1]
  IC50: 430 nM
[2]
  IC50: 21 nM
[3]
  IC50: 70 nM
[6]
  fIC50: 0.0008 µM
[4]
  CLint: 25 µL/min/1e6 cells

## CC(Cc1cccc(-c2cc(Cc3ccccc3)ccc2C(N)=O)c1)C(=O)O (centres undefined)
[1]
  IC50: 750 nM
[2]
  IC50: 11 nM
[3]
  IC50: 70 nM
[7]
  inhibition (INH): Not Active
[6]
  fIC50: 0.001 µM
[4]
  CLint: 9.6 µL/min/1e6 cells

## NC(=O)c1ccc(Cc2ccccc2)cc1
[1]
  IC50: 2200 nM
[8]
  inhibition: Dose-dependent effect
[2]
  IC50: 24000 nM
[9]
  Fu: 1.8%
[6]
  fIC50: 0.9 µM
Homo sapiens
  inhibition: inactive

## NC(=O)c1ccc(Cc2ccccc2)cc1-c1cccc(CCC(=O)O)c1
[10]
  Papp: 40.1 ×10⁻⁶ cm/s
[1]
  IC50: 280 nM
[11]
  solubility kinetic at 24 h: 98 µM (≈ 35.2 µg/mL)
[2]
  IC50: 12 nM
Cytochrome P450 1A2
  IC50: > 20000 nM
[3]
  IC50: 360 nM
[12]
  IC50: > 33300 nM
Cytochrome P450 2C19
  IC50: > 20000 nM
[13]
  F: 82%
[14]
  IC50: > 33300 nM
[15]
  F: 81%
[6]
  fIC50: 0.007 µM
[16]
  Vdss: 0.26 L/kg
[17]
  IC50: > 33300 nM
Cytochrome P450 2C9
  IC50: > 20000 nM
Cytochrome P450 3A4
  IC50: > 20000 nM
Cytochrome P450 2D6
  IC50: > 20000 nM
[4]
  CLint: 5.2 µL/min/1e6 cells
Cytochrome P450 2C8
  IC50: > 20000 nM
[18]
  IC50: > 33300 nM
[19]
  IC50: > 33300 nM
[20]
  Vdss: 0.22 L/kg
[21]
  IC50: > 33300 nM

## NC(=O)c1ccc(Cc2ccccc2)cc1-c1cccc(CCCC(=O)O)c1
[1]
  IC50: 5400 nM
[2]
  IC50: 110 nM
[3]
  IC50: 4100 nM
[6]
  fIC50: 0.03 µM

## CCc1c(C(=O)C(N)=O)c2c(OCC(=O)O)cccc2n1Cc1ccccc1 [VARESPLADIB]
[3]
  IC50: 120 nM
[9]
  Fu: 12.5%
[6]
  fIC50: 0.008 µM

## NC(=O)c1ccc(Cc2ccccc2)cc1-c1cccc(OCC(=O)O)c1
[1]
  IC50: 3700 nM
[2]
  IC50: 190 nM

## C[C@H](Cc1cccc(-c2cc(Cc3ccccc3)ccc2C(N)=O)c1)C(=O)O
[1]
  IC50: 400 nM
[2]
  IC50: 10 nM
[3]
  IC50: 40 nM
[22]
  AUC(0-inf): 69.7 µM·h
[7]
  inhibition (INH): Not Active
[23]
  F: 91%
[24]
  F: 81%
[25]
  F: 84%
Cynomolgus monkey
  fIC80: 13 nM
Cynomolgus monkey; Macaca fascicularis
  inhibition: Dose-dependent effect
[26]
  Vdss: 0.15 L/kg
Macaca fascicularis
  fIC50: 1 nM
[27]
  Vdss: 0.21 L/kg
[6]
  fIC50: 0.0001 µM
[4]
  CLint: 12 µL/min/1e6 cells
[28]
  AUC(0-inf): 70 µM·h
[29]
  AUC(0-inf): 284 µM·h
[30]
  Vdss: 2.8 L/kg
[31]
  IC50: 56 nM
[32]
  AUC(0-inf): 71.3 µM·h
[33]
  Vdss: 1.1 L/kg
[34]
  F: 76.3%
[35]
  IC50: < 14 nM
HepG2
  IC50: 176 nM

## NC(=O)c1ccc(Cc2ccccc2)cc1-c1cccc(CC(=O)O)c1
[1]
  IC50: 1100 nM
[2]
  IC50: 70 nM
[3]
  IC50: 1400 nM
[6]
  fIC50: 0.04 µM
